# Results: patent US20240197756A1, “METHODS OF TREATMENT WITH NEUROACTIVE STEROIDS” (priority 2021, published 2024)
# Tests used:
# [1] = test system: GABAA receptors in the brain; conditions: cited from earlier work; for power of the alpha-band frequency (qEEG): comparator GABAA PAMs, previously shown (FIG. 7); for beta-band frequency (qEEG): comparator marketed GABAA PAMs, previously shown
# [2] = test system: extrasynaptic form of GABAA receptors; conditions: cited from earlier work
# harmaline-induced tremor = assay: rHIT model, coadministration of Compound 1 and Compound 2; format: in vivo, rat; conditions: Compound 2 p.o. 60 min before harmaline
# Protocol: Rat Harmaline Induced Tremor (rHIT): The rHIT model was used to assess the impact of the combination of Compound 1 and Compound 2 on reducing the symptoms of tremor. Male SD rats (SLAC, Shanghai, China) weighing about 250 g at the time of testing were housed in a 12:12 light-dark cycle room throughout the study, with the lights on from 5 a.m. to 5 p.m, and fed ad libitum. […]
# The rHIT methods described in Example 5 were used. […] After the 20-minute baseline recording, rats were dosed with harmaline and the post-harmaline effect was measured for 20 minutes. […]
# [3] = Khodadoustan et al. (2017); cited from earlier work
SMILES,power of the alpha-band frequency (qEEG) [1],beta-band frequency (qEEG) [1],also measured
O=C1Nc2ccc(Cl)cc2C(c2ccccc2Cl)=NC1O (centres unmarked) [lorazepam],decrease,Increases,–
CC(=O)[C@H]1CC[C@H]2[C@@H]3CC[C@H]4C[C@H](O)CC[C@]4(C)[C@H]3CC[C@]12C [allopregnanolone],decrease,Increases,potency at synaptic and extrasynaptic receptors [2]: equipotent
"CC(C)(C)NC(=O)CN1CCC(CNC(=O)c2cc(F)cc(Cl)c2)CC1 [Compound 2, N-((1-(2-(tert-butylamino)-2-oxoethyl)piperidine-4-yl)methyl)-3chloro-5-fluorobenzamide]",–,–,effect on tremor (harmaline-induced tremor): tremor-reducing effects
CCOC(=O)C1=C(COCCN)NC(C)=C(C(=O)OC)C1c1ccccc1Cl (centres unmarked) [amlodipine besylate],–,–,"Cmax, evening administration compared to morning dosing [3]: increased; Tmax, evening administration compared to morning dosing [3]: reduced"
